Source: patent EP0759299B1, “Potentiation of serotonin response” (ELI LILLY AND COMPANY, priority 1995, dated 1997)

What was measured:
Format in all cases: in vivo, Sprague-Dawley rats
5-HT = assay: Microdialysis assay of monoamines in hypothalamus of conscious rats: 5-HT; conditions: L-tryptophan 100 mg/kg i.p. at 150 min, single animal
Description: (§1) A David Kopf stereotaxic instrument was used to implant the probe unilaterally in the hypothalamus at coordinates rostral -1.5 mm, lateral -1.3 mm, and ventral -9.0 mm (Paxinos and Watson, 1986). After a 48 hour recovery period, rats were placed in a large plastic bowl with a mounted liquid swivel system (CMA/120 system for freely moving animals, Bioanalytical Systems, West Lafayette, IN). Filtered artificial cerebrospinal fluid (CSF) (150 mM NaCl, 3.0 mM KCl, 1.7 mM CaCl2, and 0.9 mM MgCl2) was perfused through the probe at a rate of […]. The output dialysate line was fitted to a tenport HPLC valve with a 20 µl loop. At the end of each 30 minute sampling period, dialysate collected in the loop was injected on an analytical column (Spherisorb 3 µ ODS2, 2X150 mm, Keystone Scientific).
(§2) The method used to measure monoamines was as described by Perry and Fuller (1992). Briefly, dialysate collected in the 20 µl loop was assayed for 5-HT, NE and DA. The 20 µl injection went onto the column with a mobile phase which resolved NE, DA, and 5-HT: 75 mM potassium acetate, 0.5 mM ethylenediaminetetraacetic acid, 1.4 mM sodium octanesulfonic acid and 8% methanol, pH 4.9. The mobile phase for the amine column was delivered with a flow programmable pump at an initial flow rate of 0.2 ml/min increasing to 0.3 ml/min at 5 min then decreasing back to 0.2 ml/min at 26 min with a total run time of 30 min. Flow programming was used to elute the 5-HT within a 25 min time period. The electrochemical detector (EG&G, Model 400) for the amine column was set at a potential of 400 mV and a sensitivity of 0.2 nA/V. The data was collected and analyzed with a Hewlett-Packard HP1000 chromatography system which measured peak heights and calculated sample concentrations. Basal levels were measured for at least 90 minutes prior to drug administration.
(§3) Extracellular levels of the amines in microdialysates were calculated by comparing peak heights with those of 50 pmole standards. The mean value of the four samples immediately preceding drug administration served as the basal level for each experiment and data was converted to percent of basal. Paired t-tests were used to compare the mean of the basal values from the time point immediately preceding drug administration to those of each time point thereafter.

DA = assay: Microdialysis assay of monoamines in hypothalamus of conscious rats: DA; conditions: percent of baseline, pindolol s.c. infusion 50 mg/kg/hr from 120 min, single animal
Description: as §1, §2, §3

NE = assay: Microdialysis assay of monoamines in hypothalamus of conscious rats: NE; conditions: percent of baseline, pindolol s.c. infusion 50 mg/kg/hr from 120 min, single animal
Description: as §1, §2
Extracellular levels of the amines in microdialysates were calculated by comparing peak heights with those of 50 pmole standards. […]

N[C@@H](Cc1c[nH]c2ccccc12)C(=O)O [L-tryptophan]
5-HT (5-HT; Test 1, 180 min): 88.5% of basal
5-HT (5-HT; Test 1, 210 min): 83.6% of basal
5-HT (5-HT; Test 1, 240 min): 76.3% of basal
5-HT (5-HT; Test 1, 270 min): 73.9% of basal

CC(C)NCC(O)COc1cccc2[nH]ccc12 (racemic) [pindolol, 4-(2-hydroxy-3-isopropylaminopropoxy)-indole]
DA (%) (DA; Test 2, 150 min): 87.2%
DA (%) (DA; Test 2, 180 min): 73.2%
DA (%) (DA; Test 2, 210 min): 70.3%
DA (%) (DA; Test 2, 240 min): 68.5%
NE (%) (NE; Test 2, 150 min): 221.5%
NE (%) (NE; Test 2, 210 min): 232.5%
NE (%) (NE; Test 2, 240 min): 261.9%
